Laboratory results reported in patent publication US4985447A, “Certain benzoquinones, naphthoquinones and derivatives thereof which exhibit thromboxane A2 synthetase inhibition or receptor antagonism and the like” (Takeda Chemical Industries, Ltd., priority 1986, dated 1991).

Key:
[1] = test system: lipid peroxide in rat brain homogenate; assay: Inhibition of production of lipid peroxide in rat brain homogenate; format: biochemical, rat (Sprague-Dawley)
Experimental: Procedure: Sprague-Dawley rats (male, 9-15 weeks old) anesthetized with pentobarbital (50 mg/kg, intraperitoneal administration) were venesected and the brain tissue was resected. The tissue was homogenized in phosphate buffer (pH 7.4), and used as a 5% homogenate (on weight basis). The brain homogenate was allowed to react at 37° C. for 1 hour, and the amount of lipid peroxide produced was determined with the thiobarbituric acid method according to the method of Okawa et al. (Analytical Biochem 95 551, 1979). The drug was added to the 5% homogenate before the reaction at 37° C. for 1 hour so that the final concentration might be 5×10^-7 or 10^-6 M. Inhibition of production of lipid peroxide was expressed as the rate of inhibition in % of the amount produced in the solvent(DMSO)-treated group.

[2] = Effect on occurrence of ventricular arrhythmia due to ischemia-reperfusion in rat; format: in vivo, rat (Sprague-Dawley); settings: 30 mg/kg, p.o., rats showing abnormal function/rats used, during 10 minutes of reperfusion; for Incidence of ventricular fibrillation: **p<0.01 (X^2 test); for Incidence of cardiac arrest / Incidence of ventricular tachycardia: *p<0.05 (X^2 test)
Experimental: Procedure: The experiment was carried out in Sprague-Dawley rat (male, 11-12 weeks old) according to the method of A. S. Manning (Circ. Res. 55, 545, 1984). A rat was given orally a drug or water at the dose of 5 ml/kg, and anesthetized 1 hour later with pentobarbital (50 mg/kg, intraperitoneal injection). The rat was thoractomized under artificial respiration and the coronary left anterior descending artery was ligated for 5 minutes, followed by reperfusion for 10 minutes. The incidences of ventricular tachycardia, ventricular fibrillation and cardiac arrest observed for the 10 minutes of reperfusion were determined.

[3] = Effect on cerebral ischemic seizure in spontaneously hypertensive rat; format: in vivo; settings: orally at 30 mg/kg
Experimental: Procedure: A spontaneously hypertensive rat (male, 20-23 weeks old) was given orally a compound or water at the dose of 5 ml/kg, and 1 hour later anesthetized with pentobarbital. Bilateral common carotid arteries were ligated, and the interval from immediately after the ligation to the occurrence of seizure (cramp, jumping, etc.) was measured.

[4] = target: T1, Thromboxane A2 (TXA2) receptor (Oryctolagus cuniculus, UniProt Q6WQI8); assay: Thromboxane A2 (TXA2) receptor antagonism (rabbit aorta strip contraction by U-46619); settings: for Inhibition of contraction of rabbit aorta strip due to U-46619: U-46619 10^-7 M, mean ± standard error, 6 cases
T1 construct: contraction by U-46619
T1 sequence (Q6WQI8 1-233): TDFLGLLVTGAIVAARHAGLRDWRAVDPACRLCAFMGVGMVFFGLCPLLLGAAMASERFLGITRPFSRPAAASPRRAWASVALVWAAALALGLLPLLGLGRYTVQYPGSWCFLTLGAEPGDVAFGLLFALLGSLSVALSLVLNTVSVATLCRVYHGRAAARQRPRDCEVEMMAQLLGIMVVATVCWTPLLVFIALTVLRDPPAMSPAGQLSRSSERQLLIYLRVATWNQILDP
Experimental: Thromboxane A2 (TXA2) receptor antagonism
Procedure: A spiral strip of the rabbit aorta (2-3 mm wide, about 3 cm long) was suspended in Krebs-Henseleit solution under the load of 2 g. The Krebs-Henseleit solution was saturated with a mixed gas of 95% O2 -5% CO2 and warmed at 37° C. Inhibition of the contraction of the vascular strip caused by a TXA2 mimic substance, U-46619* (10^-7 M), by pretreatment with Compound No.13 30 minutes before was studied.

| Structure (SMILES) | Inhibition of production of lipid peroxide in rat brain homogenate ([1]; 5 × 10^-7 M) [%] | Inhibition of production of lipid peroxide in rat brain homogenate ([1]; 10^-6 M) [%] | Incidence of ventricular fibrillation [2] | Incidence of ventricular fibrillation ([2]; listed as Compound No.1) | Incidence of cardiac arrest [2] | Incidence of ventricular tachycardia [2] | Incidence of cardiac arrest ([2]; listed as Compound No.1) | Incidence of ventricular tachycardia ([2]; listed as Compound No.1) | Interval to the occurrence of cerebral ischemic seizure (in words) [3] | protective effect against cerebral ischemia (in words) [3] | Inhibition of contraction of rabbit aorta strip due to U-46619 ([4]; 10^-5 M) [%] | Inhibition of contraction of rabbit aorta strip due to U-46619 ([4]; 10^-5 M, listed as Compound No.13) [%] | TXA2 receptor antagonism (in words) ([4]; 10^-6 M and 10^-5 M) | Inhibition of contraction of rabbit aorta strip due to U-46619 ([4]; 10^-6 M) [%] | Inhibition of contraction of rabbit aorta strip due to U-46619 ([4]; 10^-6 M, listed as Compound No.13) [%] |
| --- | --- | --- | --- | --- | --- | --- | --- | --- | --- | --- | --- | --- | --- | --- | --- |
| CC1=C(C)C(=O)C(C(C)c2cccnc2)=C(C)C1=O (centres unmarked) [Compound No. 1, 3,5,6-trimethyl-2-[1-(3-pyridyl)ethyl]-1,4-benzoquinone] | 6 | 90 | 3/8 | inhibited significantly | 1/8 | 6/8 | inhibited significantly | inhibited significantly | prolonged remarkably the interval to the occurrence of cerebral ischemic seizure | exerts protective effects against cerebral ischemia | – | – | – | – | – |
| CC1=C(C)C(=O)C(C(CCCCCC(=O)O)c2cccnc2)=C(C)C1=O (centres unmarked) [Compound No. 13, 7-(3-pyridyl)-7-(3,5,6-trimethyl-1,4-benzoquinon-2-yl)heptanoic acid] | 20 | 84 | – | – | – | – | – | – | – | – | 86 ± 8 | 86 | remarkable TXA2 receptor antagonism | 14 ± 4 | 14 |
